# Starred links: 1 amine or outer side, 2 acyl side, 3 side chain; linkers in the order of their positions; H or OH if unused. Positions of bridges follow the written chain, without caps; N, C: chain ends. Non-standard residues stand in square brackets, D forms with d. Residues, ends and D or L forms follow the SMILES beside them. αMeNle(4R-Me,6-ylidene) = C[C@H](CC=[*:3])C[C@](C)(N[*:1])C(=O)[*:2]; X3 = C[C@@H](CC=[*:3])C[C@](C)(N[*:1])C(=O)[*:2]; X2 = O=C([C@@H](CC[*:3])N[*:1])[*:2]; S5 = C=CCCC[C@](C)(N)C(=O)O
# Columns and labels:
# Estrogen receptor [1] = target: T1, Estrogen receptor (Homo sapiens, UniProt P03372); experiment: Antagonist activity at full length recombinant human ERalpha expressed in baculovirus expression system assessed as inhibition of estradiol-induced Euphorium-labelled LTERHKILHRLLQEGSPSD peptide recruitment after 1.5 hrs by time-resolved fluorescence assay
# T1 sequence (P03372 whole entry): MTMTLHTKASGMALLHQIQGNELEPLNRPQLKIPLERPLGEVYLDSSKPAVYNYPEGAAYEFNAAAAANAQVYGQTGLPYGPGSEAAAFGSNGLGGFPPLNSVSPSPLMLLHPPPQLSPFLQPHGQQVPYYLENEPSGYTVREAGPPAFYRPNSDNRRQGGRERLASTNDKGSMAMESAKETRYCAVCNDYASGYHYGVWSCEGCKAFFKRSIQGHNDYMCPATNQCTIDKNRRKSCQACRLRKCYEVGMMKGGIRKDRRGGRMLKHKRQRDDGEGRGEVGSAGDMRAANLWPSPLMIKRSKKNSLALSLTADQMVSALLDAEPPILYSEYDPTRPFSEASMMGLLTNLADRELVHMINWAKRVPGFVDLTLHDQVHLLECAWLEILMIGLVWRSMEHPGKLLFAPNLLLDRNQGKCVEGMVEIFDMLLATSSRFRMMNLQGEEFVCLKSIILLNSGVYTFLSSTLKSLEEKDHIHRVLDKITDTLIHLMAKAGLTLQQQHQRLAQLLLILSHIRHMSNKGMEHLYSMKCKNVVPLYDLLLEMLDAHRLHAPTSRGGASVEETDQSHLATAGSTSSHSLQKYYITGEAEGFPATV
# Estrogen receptor [2] = target: T1, Estrogen receptor; experiment: Displacement of 5-iodoacetamidofluorescein-labelled SRC3 from C417-biotin labelled ERalpha (unknown origin) (304 to 554 residues) after 45 mins by TR-FRET assay
# [3] = target: T2, Estrogen receptor (Homo sapiens) (UniProt P03372); experiment: (§1) Binding affinity to recombinant human ERalpha LBD (301 to 553 residues) expressed in Escherichia coli BL21(DE3) by surface plasmon resonance method
# T2 sequence (whole entry): T1 sequence (P03372 whole entry)
# Estrogen receptor [4] = target: T1, Estrogen receptor; experiment: as §1
# [5] = system: Estrogen receptor beta (Homo sapiens), Q92731 [C334S,C369S,C481S]; experiment: (§2) Binding affinity to recombinant human ERbeta LBD (259 to 498 residues) C334S/C369S/C481S triple mutant expressed in Escherichia coli BL21(DE3) by surface plasmon resonance method
# Estrogen receptor beta [6] = target: Estrogen receptor beta (Homo sapiens, UniProt Q92731, C334S/C369S/C481S); experiment: as §2
# Estrogen receptor beta [7] = target: Estrogen receptor beta (Homo sapiens, UniProt Q92731); experiment: Antagonist activity at full length recombinant human ERbeta expressed in baculovirus expression system assessed as inhibition of estradiol-induced Euphorium-labelled QAQQKSLLQQLLTE peptide recruitment after 1.5 hrs by time-resolved fluorescence assay
# Estrogen receptor [8] = target: T1, Estrogen receptor; experiment: Binding affinity to recombinant N-terminal His6-tagged ERalpha LBD (unknown origin) (299 to 554 residues) by surface plasmon resonance method
# Estrogen receptor [9] = target: T1, Estrogen receptor; experiment: Binding affinity to recombinant human ERalpha LBD (301 to 553 residues) expressed in Escherichia coli BL21(DE3) using FITC-labelled compound after 1 hr by fluorescence polarization method
# Sequence of Estrogen receptor beta (Homo sapiens), Q92731 [C334S,C369S,C481S] (Q92731 whole entry C334S/C369S/C481S, the tested form may be a part): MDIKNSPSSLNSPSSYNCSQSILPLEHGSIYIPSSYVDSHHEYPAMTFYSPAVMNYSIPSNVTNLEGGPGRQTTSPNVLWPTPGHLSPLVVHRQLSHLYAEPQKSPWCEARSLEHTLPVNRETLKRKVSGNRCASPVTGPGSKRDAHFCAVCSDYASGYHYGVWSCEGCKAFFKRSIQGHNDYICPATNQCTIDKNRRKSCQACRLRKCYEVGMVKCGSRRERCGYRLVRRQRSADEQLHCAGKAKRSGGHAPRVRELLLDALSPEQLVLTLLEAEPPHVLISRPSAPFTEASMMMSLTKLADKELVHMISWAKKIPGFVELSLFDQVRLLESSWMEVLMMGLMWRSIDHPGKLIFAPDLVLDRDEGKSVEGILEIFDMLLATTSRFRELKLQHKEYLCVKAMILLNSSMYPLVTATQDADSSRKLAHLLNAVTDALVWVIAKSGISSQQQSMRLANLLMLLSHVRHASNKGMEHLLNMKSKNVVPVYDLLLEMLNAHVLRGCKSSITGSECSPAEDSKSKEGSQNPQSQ
# Sequence of Estrogen receptor beta (Homo sapiens, UniProt Q92731, C334S/C369S/C481S) (Q92731 whole entry C334S/C369S/C481S): as the sequence (Q92731 whole entry C334S/C369S/C481S, the tested form may be a part) above
# Sequence of Estrogen receptor beta (Homo sapiens, UniProt Q92731) (Q92731 whole entry, the tested form may be a part): as the sequence (Q92731 whole entry C334S/C369S/C481S, the tested form may be a part) above, with S334C, S369C, S481C counted along it
structure (smiles),measurement,setting,value
CC[C@H](C)[C@@H]1NC(=O)[C@H](NC(=O)[C@@H](N)CCCNC(=N)N)CSSC[C@H](C(=O)N[C@@H](CCCNC(=N)N)C(=O)N[C@@H](CC(C)C)C(=O)N[C@@H](CC(C)C)C(=O)N[C@@H](CCC(N)=O)C(N)=O)NC(=O)[C@H](CC(C)C)NC1=O,Ki,Estrogen receptor [1],11 nM
CC[C@H](C)[C@@H]1NC(=O)[C@H](NC(=O)[C@@H](N)CCCCN)CSSC[C@H](C(=O)N[C@@H](CCCNC(=N)N)C(=O)N[C@@H](CC(C)C)C(=O)N[C@@H](CC(C)C)C(=O)N[C@@H](CCC(N)=O)C(N)=O)NC(=O)[C@H](CC(C)C)NC1=O (H-K[dC]IL[dC]RLLQ-NH2; disulfide 2-5),Ki,Estrogen receptor [1],25 nM
C=CCCC[C@](C)(NC(=O)[C@H](CCCCN)NC(=O)[C@H](Cc1cnc[nH]1)NC(C)=O)C(=O)N[C@@H](CC(C)C)C(=O)N[C@@H](Cc1cnc[nH]1)C(=O)N[C@@H](CCC(N)=O)C(=O)N[C@@](C)(CCCC=C)C(=O)N[C@@H](CC(C)C)C(=O)N[C@@H](CCC(N)=O)C(=O)N[C@@H](CC(=O)O)C(=O)N[C@@H](CO)C(N)=O (Ac-HK[S5]LHQ[S5]LQDS-NH2),IC50,Estrogen receptor [2],1200 nM
CC(=O)N[C@@H](Cc1cnc[nH]1)C(=O)N[C@@H](CCCCN)C(=O)N[C@@]1(C)C[C@@H](C)C/C=C\CCC[C@@](C)(C(=O)N[C@@H](CC(C)C)C(=O)N[C@@H](CCC(N)=O)C(=O)N[C@@H](CC(=O)O)C(=O)N[C@@H](CO)C(N)=O)NC(=O)[C@H](CCCNC(=N)N)NC(=O)[C@H](Cc2cnc[nH]2)NC(=O)[C@H](CC(C)C)NC1=O (Ac-HK[X3]LHR[S5]LQDS-NH2; staple (Z) 3-7),IC50,Estrogen receptor [2],89 nM
CC(=O)N[C@@H](Cc1cnc[nH]1)C(=O)N[C@@H](CCCCN)C(=O)N[C@@]1(C)CCC/C=C\CCC[C@@](C)(C(=O)N[C@@H](CC(C)C)C(=O)N[C@@H](CCC(N)=O)C(=O)N[C@@H](CC(=O)O)C(=O)N[C@@H](CO)C(N)=O)NC(=O)[C@H](CCC(N)=O)NC(=O)[C@H](Cc2cnc[nH]2)NC(=O)[C@H](CC(C)C)NC1=O (Ac-HK[S5]LHQ[S5]LQDS-NH2; staple (Z) 3-7),Kdiss,[3],0.193 s⁻¹
same,Kd,Estrogen receptor [4],352 nM
same,Kdiss,[5],0.339 s⁻¹
same,Kd,Estrogen receptor beta [6],632 nM
same,IC50,Estrogen receptor [2],760 nM
CC[C@H](C)[C@H](NC(=O)[C@H](CCCCN)NC(=O)[C@H](Cc1cnc[nH]1)NC(=O)[C@H](CCCCN)NC(=O)[C@H](CCC(=O)O)NC(C)=O)C(=O)N[C@@H](CC(C)C)C(=O)N[C@@]1(C)CCC/C=C\CCC[C@@](C)(C(=O)N[C@@H](CC(=O)O)C(=O)N[C@@H](CO)C(N)=O)NC(=O)[C@H](CC(C)C)NC(=O)[C@H](CC(C)C)NC(=O)[C@H](CCCNC(=N)N)NC1=O (Ac-EKHKIL[S5]RLL[S5]DS-NH2; staple (Z) 7-11),Kdiss,[3],0.129 s⁻¹
same,Kd,Estrogen receptor [4],75 nM
same,Kdiss,[5],0.155 s⁻¹
same,Kd,Estrogen receptor beta [6],155 nM
CC[C@H](C)[C@@H]1NC(=O)[C@H](NC(=O)[C@@H](N)CCCNC(=N)N)CCSC[C@@H](C(=O)N[C@@H](CCCNC(=N)N)C(=O)N[C@@H](CC(C)C)C(=O)N[C@@H](CC(C)C)C(=O)N[C@@H](CCC(N)=O)C(N)=O)NC(=O)[C@H](CC(C)C)NC1=O (H-R[X2]ILCRLLQ-NH2; thioether 2-5),Ki,Estrogen receptor [1],6.9 nM
same,Ki,Estrogen receptor beta [7],64 nM
CC[C@H](C)[C@@H]1NC(=O)[C@H](NC(=O)[C@@H](N)CCCNC(=N)N)CSSC[C@H](C(=O)N[C@@H](CCCNC(=N)N)C(=O)N[C@@H](CC(C)(C)C)C(=O)N[C@@H](CC(C)C)C(=O)N[C@@H](CCC(N)=O)C(N)=O)NC(=O)[C@H](CC(C)C)NC1=O,Ki,Estrogen receptor [1],0.07 nM
same,Ki,Estrogen receptor beta [7],1.2 nM
CC[C@H](C)[C@H](NC(=O)[C@H](CCCCN)NC(=O)[C@]1(C)CCC/C=C\CCC[C@](C)(NC(C)=O)C(=O)N[C@@H](CCCCN)C(=O)N[C@@H](CCC(=O)O)C(=O)N[C@@H](CCCCN)C(=O)N1)C(=O)N[C@@H](CC(C)C)C(=O)N[C@@H](Cc1cnc[nH]1)C(=O)N[C@@H](CCC(N)=O)C(=O)N[C@@H](CC(C)C)C(=O)N[C@@H](CC(C)C)C(=O)N[C@@H](CCC(N)=O)C(=O)N[C@@H](CC(=O)O)C(=O)N[C@@H](CO)C(N)=O (Ac-[S5]KEK[S5]KILHQLLQDS-NH2; staple (Z) 1-5),Kd,Estrogen receptor [4],8000 nM
same,Kd,Estrogen receptor beta [6],8300 nM
CC(=O)N[C@@H](CCCNC(=N)N)C(=O)N[C@@H](CCCNC(=N)N)C(=O)N[C@@H](CCCNC(=N)N)C(=O)N[C@@H](CCCNC(=N)N)C(=O)N[C@@H](CCCCN)C(=O)N[C@@]1(C)CCC/C=C\CCC[C@@](C)(C(=O)N[C@@H](CC(C)C)C(=O)N[C@@H](CCC(N)=O)C(=O)N[C@@H](CC(=O)O)C(=O)N[C@@H](CO)C(N)=O)NC(=O)[C@H](CCCNC(=N)N)NC(=O)[C@H](Cc2cnc[nH]2)NC(=O)[C@H](CC(C)C)NC1=O (Ac-RRRRK[S5]LHR[S5]LQDS-NH2; staple (Z) 6-10),Kd,Estrogen receptor [8],19 nM
CC[C@H](C)[C@@H]1NC(=O)C[C@H](NC(=O)[C@@H](N)CCCNC(=N)N)C(=O)NC[C@@H](C(=O)N[C@@H](CCCNC(=N)N)C(=O)N[C@@H](CC(C)C)C(=O)N[C@@H](CC(C)C)C(=O)N[C@@H](CCC(N)=O)C(N)=O)NC(=O)[C@H](CC(C)C)NC1=O,Kd,Estrogen receptor [9],85 nM
CC[C@H](C)[C@@H]1NC(=O)[C@@](C)(NC(=O)[C@H](Cc2cnc[nH]2)NC(C)=O)CCC/C=C\CCC[C@@](C)(C(=O)N[C@@H](CC(C)C)C(=O)N[C@@H](CC(C)C)C(=O)N[C@@H](CCC(N)=O)C(=O)N[C@@H](CC(=O)O)C(=O)N[C@@H](CO)C(N)=O)NC(=O)[C@H](Cc2cnc[nH]2)NC(=O)[C@H](CC(C)C)NC1=O (Ac-H[S5]ILH[S5]LLQDS-NH2; staple (Z) 2-6),Kdiss,[3],0.256 s⁻¹
same,Kd,Estrogen receptor [4],674 nM
same,Kdiss,[5],0.509 s⁻¹
same,Kd,Estrogen receptor beta [6],1990 nM
CC[C@H](C)[C@H](NC(=O)[C@H](CCCCN)NC(=O)[C@H](Cc1cnc[nH]1)NC(C)=O)C(=O)N[C@@H](CC(C)C)C(=O)N[C@@H](Cc1cnc[nH]1)C(=O)N[C@@H](CCC(N)=O)C(=O)N[C@@H](CC(C)C)C(=O)N[C@@H](CC(C)C)C(=O)N[C@@H](CCC(N)=O)C(=O)N[C@@]1(C)CCC/C=C\CCC[C@@](C)(C(=O)N[C@H](C(N)=O)C(C)C)NC(=O)[C@H](CO)NC(=O)[C@H](CO)NC(=O)[C@H](CO)NC1=O (Ac-HKILHQLLQ[S5]SSS[S5]V-NH2; staple (Z) 10-14),Kd,Estrogen receptor [4],4000 nM
same,Kd,Estrogen receptor beta [6],2800 nM
"CC(=O)N[C@@H](Cc1cnc[nH]1)C(=O)N[C@@H](CCCCN)C(=O)N[C@@]1(C)CCC/C=C\C[C@@H](C)C[C@@](C)(C(=O)N[C@@H](CC(C)C)C(=O)N[C@@H](CCC(N)=O)C(=O)N[C@@H](CC(=O)O)C(=O)N[C@@H](CO)C(N)=O)NC(=O)[C@H](CCCNC(=N)N)NC(=O)[C@H](Cc2cnc[nH]2)NC(=O)[C@H](CC(C)C)NC1=O (Ac-HK[S5]LHR[αMeNle(4R-Me,6-ylidene)]LQDS-NH2; staple (Z) 3-7)",IC50,Estrogen receptor [2],1800 nM
CC[C@H](C)[C@H](NC(=O)[C@H](CCCCN)NC(=O)[C@H](Cc1cnc[nH]1)NC(C)=O)C(=O)N[C@@H](CC(C)C)C(=O)N[C@@H](Cc1cnc[nH]1)C(=O)N[C@@]1(C)CCC/C=C\CCC[C@@](C)(C(=O)N[C@@H](CO)C(N)=O)NC(=O)[C@H](CCC(N)=O)NC(=O)[C@H](CC(C)C)NC(=O)[C@H](CC(C)C)NC1=O (Ac-HKILH[S5]LLQ[S5]S-NH2; staple (Z) 6-10),Kd,Estrogen receptor [4],> 15000 nM
same,Kd,Estrogen receptor beta [6],> 15000 nM
CC[C@H](C)[C@H](NC(=O)[C@H](Cc1ccc(O)cc1)NC(=O)[C@@H]1C[C@H](O)CN1C(=O)[C@H](C)NC(=O)[C@H](CC(C)C)NC(=O)CCCCCNC(=O)[C@H](CCC(N)=O)NC(=O)[C@H](CC(C)C)NC(=O)[C@H](CC(C)C)NC(=O)[C@H](CCCNC(=N)N)NC(=O)[C@@H]1CNC(=O)[C@@H](NC(=O)[C@@H](N)CCCNC(=N)N)CC(=O)N[C@@H]([C@@H](C)CC)C(=O)N[C@@H](CC(C)C)C(=O)N1)C(N)=O,Kd,Estrogen receptor [9],30 nM
"CC(=O)N[C@@H](Cc1cnc[nH]1)C(=O)N[C@@H](CCCCN)C(=O)N[C@@]1(C)C[C@H](C)C/C=C\CCC[C@@](C)(C(=O)N[C@@H](CC(C)C)C(=O)N[C@@H](CCC(N)=O)C(=O)N[C@@H](CC(=O)O)C(=O)N[C@@H](CO)C(N)=O)NC(=O)[C@H](CCCNC(=N)N)NC(=O)[C@H](Cc2cnc[nH]2)NC(=O)[C@H](CC(C)C)NC1=O (Ac-HK[αMeNle(4R-Me,6-ylidene)]LHR[S5]LQDS-NH2; staple (Z) 3-7)",IC50,Estrogen receptor [2],96 nM

# From ChEMBL document CHEMBL4229451, “Recent advances in peptidomimetics antagonists targeting estrogen receptor α-coactivator interaction in cancer therapy” (Bioorg Med Chem Lett, 2018)
